Measured values from US10954219B2, “1,3-benzodioxole derivative” (DAIICHI SANKYO COMPANY, LIMITED, priority 2014, dated 2021).

What was measured:
[1] = tested on: Intracellular H3K27me3 in HCT116 cells; assay: Intracellular H3K27me3 inhibitory activity evaluation; assay type: cell-based; details: Homo sapiens, HCT-116, 72 h, 3 days, AlphaLISA, read-out: Test Example 3 H3K27me3 inhibition (HCT116) IC50
Method: The HCT116 cells were purchased from American Type Culture Collection (ATCC). […] Intracellular H3K27me3 was quantified using AlphaLISA H3K27me3 Cellular Detection Kit (PerkinElmer, Inc., #AL722F). The cells thus cultured in each well were washed with 100 μL of PBS. Cell-Histone Lysis buffer diluted 6-fold with PBS was added thereto at 80 μL/well, and the plate was then incubated at room temperature for 15 minutes while shaken. Then, Cell-Histone Extraction buffer was added thereto at 40 μL/well, and the plate was incubated at room temperature for 10 minutes while shaken. […] An AlphaLISA anti-H3K27me3 Acceptor beads/Biotinylated Antibody anti-Histone H3 (C-ter) mixed solution was added thereto at 3.3 μL/well, and the plate was incubated at room temperature for 60 minutes. Then, Streptavidin (SA)-coated Donor beads were added thereto at 3.3 μL/well, and the plate was incubated at room temperature for 30 minutes with the plate shielded from light.

PRC2-EZH1 (WT EZH1) = PRC2-EZH1 (WT EZH1) (Homo sapiens, UniProt Q92800); assay: EZH1 methyltransferase inhibitory activity evaluation
Method: EZH1 Methyltransferase Inhibitory Activity Evaluation
(§1) Then, the residual radioactivity was measured using TopCount NXT HTS (PerkinElmer, Inc., model C384V01).

PRC2-EZH2 (WT EZH2) = molecular target: T1, PRC2-EZH2 (WT EZH2) (Homo sapiens, UniProt Q15910); assay: EZH2 methyltransferase inhibitory activity evaluation; assay type: biochemical; details: PRC2-EZH2, biotin-H3 peptide, 3H-SAM, 2 hours
T1 construct: made in house
T1 sequence (Q15910 whole entry): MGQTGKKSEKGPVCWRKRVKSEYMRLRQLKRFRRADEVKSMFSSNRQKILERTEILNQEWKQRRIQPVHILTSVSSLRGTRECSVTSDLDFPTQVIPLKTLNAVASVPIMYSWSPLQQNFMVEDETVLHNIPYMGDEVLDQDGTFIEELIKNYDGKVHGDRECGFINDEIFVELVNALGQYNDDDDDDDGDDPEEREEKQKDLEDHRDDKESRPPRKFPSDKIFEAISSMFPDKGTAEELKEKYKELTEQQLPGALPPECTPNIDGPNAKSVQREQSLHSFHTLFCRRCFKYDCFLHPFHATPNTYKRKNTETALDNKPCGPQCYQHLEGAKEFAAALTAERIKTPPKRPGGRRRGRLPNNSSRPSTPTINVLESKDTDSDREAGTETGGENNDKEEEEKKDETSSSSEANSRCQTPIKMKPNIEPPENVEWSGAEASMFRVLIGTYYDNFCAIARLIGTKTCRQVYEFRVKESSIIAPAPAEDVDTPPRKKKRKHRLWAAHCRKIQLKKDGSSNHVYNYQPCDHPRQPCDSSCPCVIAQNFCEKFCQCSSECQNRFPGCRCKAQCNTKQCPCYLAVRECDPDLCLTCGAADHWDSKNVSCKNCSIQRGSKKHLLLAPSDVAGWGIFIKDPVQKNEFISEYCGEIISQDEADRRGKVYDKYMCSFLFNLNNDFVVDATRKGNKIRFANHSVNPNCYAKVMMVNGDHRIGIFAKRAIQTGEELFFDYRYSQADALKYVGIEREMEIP
T1 sequence (O75530 whole entry partner): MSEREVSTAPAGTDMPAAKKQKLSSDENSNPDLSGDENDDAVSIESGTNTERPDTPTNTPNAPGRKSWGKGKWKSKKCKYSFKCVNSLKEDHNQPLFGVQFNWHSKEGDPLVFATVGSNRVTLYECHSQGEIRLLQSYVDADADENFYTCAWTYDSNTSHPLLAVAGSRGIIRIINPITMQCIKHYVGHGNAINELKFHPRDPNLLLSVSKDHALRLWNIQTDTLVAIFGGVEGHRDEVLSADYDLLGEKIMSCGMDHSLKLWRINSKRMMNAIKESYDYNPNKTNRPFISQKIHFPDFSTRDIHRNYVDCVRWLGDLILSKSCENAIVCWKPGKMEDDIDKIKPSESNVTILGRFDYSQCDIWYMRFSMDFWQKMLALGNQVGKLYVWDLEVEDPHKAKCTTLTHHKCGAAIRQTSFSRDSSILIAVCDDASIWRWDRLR
T1 sequence (Q15022 whole entry partner): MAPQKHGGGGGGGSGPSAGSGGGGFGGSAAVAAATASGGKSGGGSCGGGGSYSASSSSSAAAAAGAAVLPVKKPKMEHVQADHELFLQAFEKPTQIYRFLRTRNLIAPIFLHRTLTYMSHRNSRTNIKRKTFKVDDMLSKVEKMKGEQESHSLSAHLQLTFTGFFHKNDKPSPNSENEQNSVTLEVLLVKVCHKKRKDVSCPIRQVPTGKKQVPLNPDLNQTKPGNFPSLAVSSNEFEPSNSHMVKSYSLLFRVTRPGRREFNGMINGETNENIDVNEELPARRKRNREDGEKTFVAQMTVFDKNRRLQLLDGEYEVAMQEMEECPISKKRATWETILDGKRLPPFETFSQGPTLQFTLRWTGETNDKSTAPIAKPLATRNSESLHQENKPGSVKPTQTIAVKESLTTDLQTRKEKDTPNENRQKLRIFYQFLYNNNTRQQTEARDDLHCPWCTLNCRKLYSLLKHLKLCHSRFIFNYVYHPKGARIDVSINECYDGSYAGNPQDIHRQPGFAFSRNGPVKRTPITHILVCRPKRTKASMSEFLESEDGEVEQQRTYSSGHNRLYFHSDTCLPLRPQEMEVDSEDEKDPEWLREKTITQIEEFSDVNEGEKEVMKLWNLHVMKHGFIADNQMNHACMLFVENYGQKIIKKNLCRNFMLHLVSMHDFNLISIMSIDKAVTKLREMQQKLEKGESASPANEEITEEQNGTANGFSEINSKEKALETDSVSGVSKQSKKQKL
Method: EZH2 Methyltransferase Inhibitory Activity Evaluation
as §1

PRC2-EZH1 (WT EZH1), sequence (Q92800 whole entry): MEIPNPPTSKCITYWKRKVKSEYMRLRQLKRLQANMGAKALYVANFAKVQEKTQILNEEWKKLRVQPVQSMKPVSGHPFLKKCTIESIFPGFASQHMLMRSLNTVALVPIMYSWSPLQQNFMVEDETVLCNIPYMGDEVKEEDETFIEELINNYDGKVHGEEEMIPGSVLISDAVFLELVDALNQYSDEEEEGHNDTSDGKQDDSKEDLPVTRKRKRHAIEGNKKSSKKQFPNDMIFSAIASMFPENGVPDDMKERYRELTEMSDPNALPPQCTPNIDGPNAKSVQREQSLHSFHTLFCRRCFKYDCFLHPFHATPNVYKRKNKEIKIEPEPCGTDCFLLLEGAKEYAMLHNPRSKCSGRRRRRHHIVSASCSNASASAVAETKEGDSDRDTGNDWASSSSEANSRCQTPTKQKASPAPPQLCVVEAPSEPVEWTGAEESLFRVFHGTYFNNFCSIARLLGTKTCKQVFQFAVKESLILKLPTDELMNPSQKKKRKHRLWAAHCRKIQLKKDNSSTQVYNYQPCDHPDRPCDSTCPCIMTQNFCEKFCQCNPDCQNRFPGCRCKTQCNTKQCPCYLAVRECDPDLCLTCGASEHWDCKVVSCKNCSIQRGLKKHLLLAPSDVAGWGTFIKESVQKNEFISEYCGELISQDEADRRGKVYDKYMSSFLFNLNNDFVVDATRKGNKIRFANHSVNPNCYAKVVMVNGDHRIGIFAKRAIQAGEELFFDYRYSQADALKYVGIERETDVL
PRC2-EZH1 (WT EZH1), sequence (O75530 whole entry partner): as the sequence (O75530 whole entry partner) above
PRC2-EZH1 (WT EZH1), sequence (Q15022 whole entry partner): as the sequence (Q15022 whole entry partner) above
PRC2-EZH1 (WT EZH1), sequence (Q09028 whole entry partner): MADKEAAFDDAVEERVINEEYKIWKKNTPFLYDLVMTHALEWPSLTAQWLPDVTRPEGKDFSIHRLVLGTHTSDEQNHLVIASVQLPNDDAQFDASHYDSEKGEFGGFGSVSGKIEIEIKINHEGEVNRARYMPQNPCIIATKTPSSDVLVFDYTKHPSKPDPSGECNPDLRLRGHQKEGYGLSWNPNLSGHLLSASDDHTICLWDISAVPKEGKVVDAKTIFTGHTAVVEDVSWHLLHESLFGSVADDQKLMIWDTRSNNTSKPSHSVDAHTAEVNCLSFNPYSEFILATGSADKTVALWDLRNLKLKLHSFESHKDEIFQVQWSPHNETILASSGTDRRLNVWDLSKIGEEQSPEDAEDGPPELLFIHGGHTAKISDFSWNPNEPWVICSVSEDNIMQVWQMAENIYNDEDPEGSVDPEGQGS
PRC2-EZH1 (WT EZH1), sequence (Q6ZN18 whole entry partner): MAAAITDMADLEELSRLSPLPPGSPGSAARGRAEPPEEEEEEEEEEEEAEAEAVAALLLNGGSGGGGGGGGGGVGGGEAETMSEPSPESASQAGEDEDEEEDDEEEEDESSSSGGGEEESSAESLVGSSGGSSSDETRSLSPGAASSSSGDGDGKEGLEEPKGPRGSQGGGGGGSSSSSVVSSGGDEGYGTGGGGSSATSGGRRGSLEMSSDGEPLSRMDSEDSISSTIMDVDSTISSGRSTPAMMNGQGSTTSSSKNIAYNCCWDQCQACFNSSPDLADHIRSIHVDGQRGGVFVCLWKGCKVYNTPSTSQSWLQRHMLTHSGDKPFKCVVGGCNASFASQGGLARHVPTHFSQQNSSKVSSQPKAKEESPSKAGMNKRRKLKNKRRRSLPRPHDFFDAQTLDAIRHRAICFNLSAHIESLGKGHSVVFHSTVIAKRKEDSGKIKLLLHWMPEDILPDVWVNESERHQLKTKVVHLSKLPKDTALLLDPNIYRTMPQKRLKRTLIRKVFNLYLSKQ

SMILES | IC50 [1] | IC50 (PRC2-EZH1 (WT EZH1)) | IC50 (PRC2-EZH2 (WT EZH2))
CCc1cc(C(=O)NCc2c(C)cc(C)[nH]c2=O)c(C)c2c1OC(C)([C@H]1CC[C@H](N(C)C)CC1)O2 (relative stereo) [Example 76, 2-[trans-4-(Dimethylamino)cyclohexyl]-N-[(4,6-dimethyl-2-oxo-1,2-dihydropyridin-3-yl)methyl]-7-ethyl-2,4-dimethyl-1,3-benzodioxole-5-carboxamide] | 0.88 nM | 20 nM | 12 nM
Cc1cc(C)c(CNC(=O)c2cc(C)c3c(c2C)O[C@@](C)([C@H]2CC[C@H](N(C)C)CC2)O3)c(=O)[nH]1 (single isomer, unassigned) [Example 48] | 0.48 nM | 8.9 nM | 8 nM
Cc1cc(C)c(CNC(=O)c2cc(Br)c3c(c2C)OC(C)(C2CCOC2)O3)c(=O)[nH]1 (stereo not drawn) [Example 1, 7-Bromo-N-[(4,6-dimethyl-2-oxo-1,2-dihydropyridin-3-yl)methyl]-2,4-dimethyl-2-(tetrahydrofuran-3-yl)-1,3-benzodioxole-5-carboxamide] | 29 nM | 140 nM | 24 nM
Cc1cc(C)c(CNC(=O)c2cc(Br)c3c(c2C)OC(C)(C24CC(N(C)C)(C2)C4)O3)c(=O)[nH]1 (stereo not drawn) [Example 3, 7-Bromo-2-[3-(dimethylamino)-1-bicyclo[1.1.1]pentanyl]-N-[(4,6-dimethyl-2-oxo-1,2-dihydropyridin-3-yl)methyl]-2,4-dimethyl-1,3-benzodioxole-5-carboxamide] | 26 nM | 660 nM | 30 nM
Cc1cc(C)c(CNC(=O)c2cc(Br)c3c(c2C)OC(C)(C2CC4(CC(N(C)C)C4)C2)O3)c(=O)[nH]1 (stereo not drawn) [Example 4, 7-Bromo-2-[2-(dimethylamino)spiro[3.3]heptan-6-yl]-N-[(4,6-dimethyl-2-oxo-1,2-dihydropyridin-3-yl)methyl]-2,4-dimethyl-1,3-benzodioxole-5-carboxamide] | 8.3 nM | 130 nM | 25 nM
CCN1CC2(CC(C3(C)Oc4c(Br)cc(C(=O)NCc5c(C)cc(C)[nH]c5=O)c(C)c4O3)C2)C1 (stereo not drawn) [Example 5, 7-Bromo-N-[(4,6-dimethyl-2-oxo-1,2-dihydropyridin-3-yl)methyl]-2-(2-ethyl-2-azaspiro[3.3]heptan-6-yl)-2,4-dimethyl-1,3-benzodioxole-5-carboxamide] | 51 nM | 250 nM | 15 nM
Cc1cc(C)c(CNC(=O)c2cc(Br)c3c(c2C)OC(C)(C2CCN(C)C2)O3)c(=O)[nH]1 (stereo not drawn) [Example 6, 7-Bromo-N-[(4,6-dimethyl-2-oxo-1,2-dihydropyridin-3-yl)methyl]-2,4-dimethyl-2-(1-methylpyrrolidin-3-yl)-1,3-benzodioxole-5-carboxamide] | 45 nM | 510 nM | 39 nM
CCN1CCC([C@@]2(C)Oc3c(Br)cc(C(=O)NCc4c(C)cc(C)[nH]c4=O)c(C)c3O2)CC1 [Example 7, (2R)-7-Bromo-N-[(4,6-dimethyl-2-oxo-1,2-dihydropyridin-3-yl)methyl]-2-(1-ethyl-4-piperidyl)-2,4-dimethyl-1,3-benzodioxole-5-carboxamide] | 8.4 nM | 38 nM | 3.6 nM
Cc1cc(C)c(CNC(=O)c2cc(Br)c3c(c2C)O[C@@](C)(C2CCN(C)CC2)O3)c(=O)[nH]1 [Example 8, (2R)-7-Bromo-N-[(4,6-dimethyl-2-oxo-1,2-dihydropyridin-3-yl)methyl]-2,4-dimethyl-2-(1-methyl-4-piperidyl)-1,3-benzodioxole-5-carboxamide] | 6 nM | 97 nM | 16 nM
COCCN1CCC([C@@]2(C)Oc3c(Br)cc(C(=O)NCc4c(C)cc(C)[nH]c4=O)c(C)c3O2)CC1 [Example 10, (2R)-7-Bromo-N-[(4,6-dimethyl-2-oxo-1H-pyridin-3-yl)methyl]-2-[l-(2-methoxyethyl)-4-piperidyl]-2,4-dimethyl-1,3-benzodioxole-5-carboxamide] | 18 nM | 130 nM | 11 nM
CCCc1cc(C)[nH]c(=O)c1CNC(=O)c1cc(Br)c2c(c1C)O[C@@](C)(C1CCN(CC)CC1)O2 [Example 12, (2R)-7-Bromo-2-(1-ethyl-4-piperidyl)-2,4-dimethyl-N-[(6-methyl-2-oxo-4-propyl-1,2-dihydropyridin-3-yl)methyl]-1,3-benzodioxole-5-carboxamide] | 140 nM | 200 nM | 28 nM
Cc1cc(C)c(CNC(=O)c2cc(Br)c3c(c2C)OC(C)(CC2CCN(C)CC2)O3)c(=O)[nH]1 (stereo not drawn) [Example 25, 7-Bromo-N-[(4,6-dimethyl-2-oxo-1,2-dihydropyridin-3-yl)methyl]-2,4-dimethyl-2-[(1-methyl-4-piperidyl)methyl]-1,3-benzodioxole-5-carboxamide] | 45 nM | 110 nM | 12 nM
CCN1CCC(CC2(C)Oc3c(Br)cc(C(=O)NCc4c(C)cc(C)[nH]c4=O)c(C)c3O2)CC1 (stereo not drawn) [Example 26, 7-Bromo-N-[(4,6-dimethyl-2-oxo-1,2-dihydropyridin-3-yl)methyl]-2-[(1-ethyl-4-piperidyl)methyl]-2,4-dimethyl-1,3-benzodioxole-5-carboxamide] | 37 nM | 190 nM | 23 nM
Cc1cc(C)c(CNC(=O)c2cc(Br)c3c(c2C)O[C@@](C)(CO[C@H]2CCN(C)C2)O3)c(=O)[nH]1 [Example 29, (2R)-7-Bromo-N-[(4,6-dimethyl-2-oxo-1,2-dihydropyridin-3-yl)methyl]-2,4-dimethyl-2-[[(3S)-1-methylpyrrolidin-3-yl]oxymethyl]-1,3-benzodioxole-5-carboxamide] | 16 nM | 68 nM | 9.4 nM
Cc1cc(C)c(CNC(=O)c2cc(Cl)c3c(c2C)OC(C)(C2CC4(CC(N(C)C)C4)C2)O3)c(=O)[nH]1 (stereo not drawn) [Example 30, 7-Chloro-2-[2-(dimethylamino)spiro[3.3]heptan-6-yl]-N-[(4,6-dimethyl-2-oxo-1,2-dihydropyridin-3-yl)methyl]-2,4-dimethyl-1,3-benzodioxole-5-carboxamide] | 16 nM | 180 nM | 21 nM
CCN1CCC([C@@]2(C)Oc3c(Cl)cc(C(=O)NCc4c(C)cc(C)[nH]c4=O)c(C)c3O2)CC1 [Example 31, (2R)-7-Chloro-N-[(4,6-dimethyl-2-oxo-1,2-dihydropyridin-3-yl)methyl]-2-(1-ethyl-4-piperidyl)-2,4-dimethyl-1,3-benzodioxole-5-carboxamide] | 9 nM | 110 nM | 18 nM
Cc1cc(C)c(CNC(=O)c2cc(Cl)c3c(c2C)OC(C)([C@@H]2CC[C@@H](N(C)C)CO2)O3)c(=O)[nH]1 (stereo partly drawn) [Example 38, 7-Chloro-2-[(2S,5R)-5-(dimethylamino)tetrahydropyran-2-yl]-N-[(4,6-dimethyl-2-oxo-1,2-dihydropyridin-3-yl)methyl]-2,4-dimethyl-1,3-benzodioxole-5-carboxamide] | 2.8 nM | 57 nM | 12 nM
COc1cc(C)[nH]c(=O)c1CNC(=O)c1cc(Cl)c2c(c1C)OC(C)([C@@H]1CC[C@@H](N(C)C)CO1)O2 (stereo partly drawn) [Example 39, 7-Chloro-2-[(2S,5R)-5-(dimethylamino)tetrahydropyran-2-yl]-N-[(4-methoxy-6-methyl-2-oxo-1,2-dihydropyridin-3-yl)methyl]-2,4-dimethyl-1,3-benzodioxole-5-carboxamide] | 2.2 nM | 40 nM | 14 nM
Cc1cc(C)c(CNC(=O)c2cc(Cl)c3c(c2C)OC(C)(CC2CCN(C)CC2)O3)c(=O)[nH]1 (stereo not drawn) [Example 40, 7-Chloro-N-[(4,6-dimethyl-2-oxo-1,2-dihydropyridin-3-yl)methyl]-2,4-dimethyl-2-[(1-methyl-4-piperidyl)methyl]-1,3-benzodioxole-5-carboxamide] | 32 nM | 210 nM | 11 nM
Cc1cc(C)c(CNC(=O)c2cc(Br)c3c(c2C)OC(C)(CN2CCNCC2)O3)c(=O)[nH]1 (stereo not drawn) [Example 42, 7-Bromo-N-[(4,6-dimethyl-2-oxo-1,2-dihydropyridin-3-yl)methyl]-2,4-dimethyl-2-(piperazin-1-ylmethyl)-1,3-benzodioxole-5-carboxamide] | 67 nM | 190 nM | 27 nM
Cc1cc(C)c(CNC(=O)c2cc(Br)c3c(c2C)OC(C)(CN2CCN(C)CC2)O3)c(=O)[nH]1 (stereo not drawn) [Example 43, 7-Bromo-N-[(4,6-dimethyl-2-oxo-1,2-dihydropyridin-3-yl)methyl]-2,4-dimethyl-2-[(4-methylpiperazin-1-yl)methyl]-1,3-benzodioxole-5-carboxamide] | 44 nM | 380 nM | 41 nM
Cc1cc(C)c(CNC(=O)c2cc(Br)c3c(c2C)OC(C)(CN2CCC(N(C)C)CC2)O3)c(=O)[nH]1 (stereo not drawn) [Example 44, 7-Bromo-2-[[4-(dimethylamino)-1-piperidyl]methyl]-N-[(4,6-dimethyl-2-oxo-1,2-dihydropyridin-3-yl)methyl]-2,4-dimethyl-1,3-benzodioxole-5-carboxamide] | 14 nM | 77 nM | 7.9 nM
Cc1cc(C)c(CNC(=O)c2cc(Br)c3c(c2C)O[C@@](C)(CN2CCOCC2)O3)c(=O)[nH]1 [Example 45, (2R)-7-Bromo-N-[(4,6-dimethyl-2-oxo-1,2-dihydropyridin-3-yl)methyl]-2,4-dimethyl-2-(morpholinomethyl)-1,3-benzodioxole-5-carboxamide] | 13 nM | 110 nM | 9.6 nM
Cc1cc(C)c(CNC(=O)c2cc(C)c3c(c2C)OC(C)([C@@H]2CC[C@@H](N(C)C)CO2)O3)c(=O)[nH]1 (stereo partly drawn) [Example 49, 2-[(2S,5R)-5-(Dimethylamino)tetrahydropyran-2-yl]-N-[(4,6-dimethyl-2-oxo-1,2-dihydropyridin-3-yl)methyl]-2,4,7-trimethyl-1,3-benzodioxole-5-carboxamide] | 2.6 nM | 92 nM | 18 nM
